Read-outs that look alike come from different tables or passages of the source.
Target: T1, Or22a and Or83b (Drosophila melanogaster, UniProt P81909+Q9VNB5)
T1 construct: expressed in transfected cells; host or cells: HEK293
T1 sequence (P81909 1-397): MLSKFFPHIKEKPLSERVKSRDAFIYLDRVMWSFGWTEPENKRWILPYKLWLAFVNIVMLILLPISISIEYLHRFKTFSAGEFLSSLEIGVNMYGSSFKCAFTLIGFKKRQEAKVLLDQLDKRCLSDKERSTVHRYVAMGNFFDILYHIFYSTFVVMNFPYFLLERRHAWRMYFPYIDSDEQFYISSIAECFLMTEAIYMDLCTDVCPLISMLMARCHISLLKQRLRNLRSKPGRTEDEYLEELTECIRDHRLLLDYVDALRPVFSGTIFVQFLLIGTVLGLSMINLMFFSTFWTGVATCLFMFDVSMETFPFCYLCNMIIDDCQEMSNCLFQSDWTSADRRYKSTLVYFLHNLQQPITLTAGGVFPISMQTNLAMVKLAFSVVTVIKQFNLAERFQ
T1 sequence (Q9VNB5 1-486): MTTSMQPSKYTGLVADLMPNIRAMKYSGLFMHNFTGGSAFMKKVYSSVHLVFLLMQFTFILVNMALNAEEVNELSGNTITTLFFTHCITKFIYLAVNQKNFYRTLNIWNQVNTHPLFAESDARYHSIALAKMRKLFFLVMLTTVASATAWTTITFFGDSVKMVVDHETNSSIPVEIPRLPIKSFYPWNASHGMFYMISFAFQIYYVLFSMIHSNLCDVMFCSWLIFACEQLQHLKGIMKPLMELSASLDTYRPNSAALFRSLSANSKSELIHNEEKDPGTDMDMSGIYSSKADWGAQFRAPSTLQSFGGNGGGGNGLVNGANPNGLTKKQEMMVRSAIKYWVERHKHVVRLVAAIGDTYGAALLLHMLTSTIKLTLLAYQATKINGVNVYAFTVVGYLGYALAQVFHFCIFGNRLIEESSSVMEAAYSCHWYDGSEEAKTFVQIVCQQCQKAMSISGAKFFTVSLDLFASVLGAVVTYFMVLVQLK
Assay: Whole-cell patch-clamp of currents in HEK293 cells coexpressing Or22a and Or83b
Format: cell-based
Procedure: In some experiments we transfected cells with pcDNA3-DOR22a-GFP or pcDNA3-DOR83b-GFP alone. We also examined the properties of DOR47a, which was cloned, using standard molecular biology methods into a pcDNA3.1(-) expression vector. To test for putative G-protein coupling, cells were transfected with the respective OR-DNA together with 1.5 µg hHCN2/pcDNA3 (provided by M. Biel, Munich, Germany), with 1 µg hKCNQ4/pcDNA3.1 or with 1 µg hCNGA2/pCMV6-XL4 (Origene, Rockville, MD, USA).
In brief, ion currents in HEK293 cells were measured at room temperature using whole-cell patch-clamp with appropriate compensation of series resistance and of capacitive currents. Additional experiments were performed in the outside-out configuration. Current measurements and data acquisition were performed using an EPC9 patch-clamp amplifier controlled by PatchMaster software (both HEKA Elektronik, Lambrecht, Germany). Patch-clamp pipettes were fabricated from borosilicate capillaries. Pipettes for whole-cell recordings had resistances of 2-4 MΩ for excised-patch recordings the pipette resistance was up to 15 MΩ.
To differentiate between ionotropic and metabotropic pathways of receptor activation (Fig. 2a-d) the pipette solution contained either 2 mM ATP plus 2 mM GTP or 2 mM ADP plus 2 mM GDP (both for whole-cell and outside-out configuration). For the preparation of Cl^--free solutions the chloride salts were substituted by gluconate salts. The pipette Cs^+ solution contained (in mM) 140 CsCl, 1 Mg-ATP, 10 EGTA, 10 HEPES (pH = 7.3), and the Cs^+ bath solution contained (in mM) 140 CsCl, 15 glucose, 15 HEPES (pH = 7.4). The Ca^2+-free bath solution contained (in mM) 140 NaCl, 15 glucose, 15 HEPES, and the Na^+-free bath solution contained (in mM) 140 NMDG-Cl, 10 CaCl2, 10 glucose, 15 HEPES.
With the exception of GDP-γ-S, which was applied via the patch pipette, all substances were applied to the bath using either a bath perfusion system (BPS4 from ALA, New York, USA) or a rapid solution changer (RSC160 from Biologic, Claix, France) which were controlled by the PatchMaster software (HEKA Elektronik).

[1] = Etb 100 nM, 1 s, whole-cell, -60 mV, Or22a C-terminal GFP fusion protein, ADP and GDP (-)
[2] = Etb 100 nM, 1 s, whole-cell, -60 mV, Or22a C-terminal GFP fusion protein, ATP and GTP (+)
[3] = Etb 100 nM, 1 s, whole-cell, -60 mV, Or22a N-terminal GFP fusion protein, ADP and GDP (-)
[4] = Etb 100 nM, 1 s, whole-cell, -60 mV, Or22a N-terminal GFP fusion protein, ATP and GTP (+)
[5] = short Etb application, whole-cell, -60 mV, Tab. 1
[6] = short Etb application, whole-cell, -60 mV, internal ATP and GTP, Tab. 1

With `CCCC(=O)OCC` [Etb, ethyl butyrate] the “further increase of current” value (100 µM Etb after stimulation with 100 µM 8-bromo-cAMP) was “+1.6 ± 3.8 % of current induced by 8-bromo-cAMP”, the “Etb-induced current in symmetrical Cs+ solutions” value (140 mM Cs+ in pipette and bath solution, n = 6) was “No current was detected” and the EC50 (EC50 of Etb-induced currents, 500 µM GDP-β-S in the pipette, n = 11) was 70000 pM. The “latency of Ii” value (Etb 100 nM, 1 s, whole-cell, -60 mV) was under 0.5 s, the “Ii Decay time” value [1] was 10.8 ± 0.6 s and the “Ii Peak size” value [1] was 133 ± 51 pA. The “Ii Peak time” value [1] was 1.13 ± 0.02 s, the “Im Decay time” value [1] was 68 ± 8 s and the “Im Latency” value [1] was 18 ± 8 s. The “Im Peak size” value [1] was 77 ± 7 PA, the “Im Peak time” value [1] was 43 ± 9 s and the “Ii Decay time” value [2] was 10.5 ± 0.7 s. The “Ii Peak size” value [2] was 100 ± 23 pA, the “Ii Peak time” value [2] was 1.10 ± 0.03 s and the “Im Decay time” value [2] was 79 ± 5 s. For the same compound, the “Im Latency” value [2] was 10 ± 2 s, the “Im Peak size” value [2] was 291 ± 54 PA and the “Im Peak time” value [2] was 58 ± 4 s. For the same compound, the “Ii Decay time” value [3] was 10.4 ± 0.9 s, the “Ii Peak size” value [3] was 132 ± 38 pA and the “Ii Peak time” value [3] was 0.90 ± 0.17 s. For the same compound, the “Im Decay time” value [3] was 63 ± 9 s, the “Im Latency” value [3] was 24 ± 5 s and the “Im Peak size” value [3] was 51 ± 6 PA. The “Im Peak time” value [3] was 44 ± 6 s, the “Ii Decay time” value [4] was 10.2 ± 0.9 s and the “Ii Peak size” value [4] was 98 ± 23 pA. For the same compound, the “Ii Peak time” value [4] was 1.16 ± 0.06 s, the “Im Decay time” value [4] was 80 ± 8 s and the “Im Latency” value [4] was 11 ± 3 s. The “Im Peak size” value [4] was 311 ± 51 PA, the “Im Peak time” value [4] was 62 ± 9 s and the “Hill coefficient of olfactory receptor current (ORC)” value (cells coexpressing Or22a, Or83b and hKCNQ4, n = 6) was 0.41. The EC50 (cells coexpressing Or22a, Or83b and hKCNQ4, normalized to maximum response, n = 6, read-out: EC50 of olfactory receptor current (ORC)) was 256 pM, the “Hill coefficient of Etb-induced currents” value (control conditions, n = 9) was 0.61 and the EC50 (control conditions, n = 9, read-out: EC50 of Etb-induced currents) was 677 pM. The EC50 (half-maximal effect (current size), metabotropic current response) was about 700 pM, the “odorant concentration at which current size saturates” value (metabotropic current response, Fig. 2f) was “about 100 nM” and the “odour-induced current in Cl^--free solutions” value (n = 5) was “remained unchanged”. The Ii peak [5] was 1 s, the Ii termination [5] was 10 s and the Im Latency [6] was 10 s. The Im peak [6] was 60 s and the Im termination [6] was 80 s.

Reference: patent EP2108954A1, “A test system for detecting intracellular cyclic nucleotide level and methods and uses thereof” (Max-Planck-Gesellschaft zur Förderung der Wissenschaften …, priority 2008, dated 2009)
